Reference: US10934303B2, “Aryl ethene derivative and pharmaceutical composition containing same as active ingredient” (priority 2016, dated 2021)
Read-outs that look alike come from different tables or passages of the source.

Assays:
[1] = 1 μM, 30 minutes, 37° C., NADPH
[2] = 1 μM, 30 minutes, 37° C., NADPH; remark: listed apart in the source
[3] = 1 μM, 30 minutes, 37° C., NADPH; remark: listed apart in the source
[4] = 1 μM, 30 minutes, 37° C., NADPH; remark: listed apart in the source
in vivo = format: in vivo; conditions: rat; for Cmax: read-out: Cmax
[5] = target: GST-bound ERR gamma ligand-binding domain (LBD) (Homo sapiens (Human), UniProt P62508); assay: ERRγ binding assay (inverse agonist assay), TR-FRET; conditions: TR-FRET, PGC1a coactivator; read-out: Binding Assay, IC50 ERRγ
Protocol: 1) ERRγ Binding Assay (Inverse Agonist Assay)
(§2) The arylethene derivative of the present invention was sequentially added to a 384 well plate from a concentration of 10 μM to a final concentration of two-fold dilution. […] After all reagents were added, a reaction was carried out with gentle shaking at 20° C. for 1 hour, and after the reaction, a binding activity was measured by a TR-FRET method.

ERRγ = format: cell-based
Protocol: AD293 was cultured in a 24-well plate for 24 hours, using a DMEM High glucose culture medium (Hyclone, USA) to which 0.5% FBS was added at a concentration of 9×10^4/well. The culture medium was replaced with a DMEM High glucose culture medium to which 10% FBS was added, treatment was performed with a mixture of a TransIT-LT1 transfection reagent (Mirus, USA) and pCMX-Gal4-ERRγ, pFR-luciferase reporter plasmid, pCMV-β-gal, and culturing was performed for 24 hours. Thereafter, a luciferase activity assay and a β-gal assay were performed, respectively, with a lysate obtained after treatment with the arylethene derivative of the present invention for 24 hours. All results were derived from three or more independent repetitive experiments.

in vitro = in vitro ADME; parameters: Papp at 5 h: dose or concentration left out as unconfirmed; conditions: PBS pH 7.4, 25° C.; for Papp at 5 h: PAMPA, read-out: Permeability Pampa; for Permeability Pampa: 5 hours
CYP2C19 = CYP2C19 (Homo sapiens (Human), UniProt P33261); assay: Cytochrome P450 activity inhibition, CYP2C19; format: in vitro ADME; conditions: 10 μM, human liver microsomes, S-mephenytoin substrate
From the text: (§1) 1) Cytochrome P450 (CYP450) Activity Inhibition Evaluation

CYP3A4 = CYP3A4 (Homo sapiens (Human), UniProt P08684); assay: Cytochrome P450 activity inhibition, CYP3A4; format: in vitro ADME; conditions: 10 μM, human liver microsomes, Midazolam substrate
From the text: as §1

GST-bound ERR alpha LBD = GST-bound ERR alpha LBD (Homo sapiens (Human), UniProt P11474); conditions: TR-FRET, PGC1a coactivator; read-out: Binding Assay, IC50 ERRα
Protocol: as §2

CYP1A2 = CYP1A2 (Homo sapiens (Human), UniProt P05177); assay: Cytochrome P450 activity inhibition, CYP1A2; format: in vitro ADME; conditions: 10 μM, human liver microsomes, Phenacetin substrate
From the text: as §1

[6] = target: GST-bound ER alpha ligand-binding domain (LBD) (Homo sapiens (Human), UniProt P03372); assay: biochemical; conditions: TR-FRET, beta-estradiol 4 nM as agonist; read-out: Binding Assay, IC50 ERα
Protocol: as §2

CYP2D6 = CYP2D6 (Homo sapiens (Human), UniProt P10635); assay: Cytochrome P450 activity inhibition, CYP2D6; format: in vitro ADME; conditions: 10 μM, human liver microsomes, Dextromethorphan substrate
From the text: as §1

CYP2C9 = CYP2C9 (Homo sapiens (Human), UniProt P11712); assay: Cytochrome P450 activity inhibition, CYP2C9; format: in vitro ADME; conditions: 10 μM, human liver microsomes, Diclofenac substrate
From the text: as §1

[7] = activity relative to reference compound GSK5182, 10 μM

GST-bound ERR gamma ligand-binding domain (LBD), sequence (P62508 233-457): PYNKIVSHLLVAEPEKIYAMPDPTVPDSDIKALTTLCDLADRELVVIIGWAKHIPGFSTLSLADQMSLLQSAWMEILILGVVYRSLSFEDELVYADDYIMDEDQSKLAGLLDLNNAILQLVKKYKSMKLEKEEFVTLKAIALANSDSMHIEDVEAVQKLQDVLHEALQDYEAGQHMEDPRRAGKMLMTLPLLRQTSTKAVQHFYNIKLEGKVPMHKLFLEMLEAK
CYP2C9, sequence (P11712 whole entry): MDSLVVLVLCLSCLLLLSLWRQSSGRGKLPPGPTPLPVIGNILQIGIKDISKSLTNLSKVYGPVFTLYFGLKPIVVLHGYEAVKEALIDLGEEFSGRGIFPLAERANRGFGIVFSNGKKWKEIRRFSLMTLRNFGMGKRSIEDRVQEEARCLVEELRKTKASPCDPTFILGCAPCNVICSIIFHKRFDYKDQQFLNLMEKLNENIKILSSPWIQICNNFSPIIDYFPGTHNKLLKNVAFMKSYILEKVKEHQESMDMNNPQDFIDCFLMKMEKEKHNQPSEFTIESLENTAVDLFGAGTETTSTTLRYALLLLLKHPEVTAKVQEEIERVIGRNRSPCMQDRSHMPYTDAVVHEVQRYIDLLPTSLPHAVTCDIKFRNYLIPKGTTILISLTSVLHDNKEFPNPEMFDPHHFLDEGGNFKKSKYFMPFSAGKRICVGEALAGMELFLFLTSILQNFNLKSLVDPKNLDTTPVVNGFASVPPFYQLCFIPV
CYP2D6, sequence (P10635 whole entry): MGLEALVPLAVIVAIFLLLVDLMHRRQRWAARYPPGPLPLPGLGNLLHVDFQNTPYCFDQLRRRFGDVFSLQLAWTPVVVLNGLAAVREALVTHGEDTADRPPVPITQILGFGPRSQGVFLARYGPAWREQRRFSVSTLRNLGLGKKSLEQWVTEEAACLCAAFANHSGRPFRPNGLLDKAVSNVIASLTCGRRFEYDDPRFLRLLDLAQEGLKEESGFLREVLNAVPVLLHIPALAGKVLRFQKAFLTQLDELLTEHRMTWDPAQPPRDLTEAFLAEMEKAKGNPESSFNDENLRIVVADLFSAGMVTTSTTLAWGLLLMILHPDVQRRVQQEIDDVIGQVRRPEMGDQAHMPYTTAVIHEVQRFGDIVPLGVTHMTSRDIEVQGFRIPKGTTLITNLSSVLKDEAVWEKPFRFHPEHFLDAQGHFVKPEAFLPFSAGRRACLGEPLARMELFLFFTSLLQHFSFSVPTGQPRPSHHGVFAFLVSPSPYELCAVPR
CYP3A4, sequence (P08684 whole entry): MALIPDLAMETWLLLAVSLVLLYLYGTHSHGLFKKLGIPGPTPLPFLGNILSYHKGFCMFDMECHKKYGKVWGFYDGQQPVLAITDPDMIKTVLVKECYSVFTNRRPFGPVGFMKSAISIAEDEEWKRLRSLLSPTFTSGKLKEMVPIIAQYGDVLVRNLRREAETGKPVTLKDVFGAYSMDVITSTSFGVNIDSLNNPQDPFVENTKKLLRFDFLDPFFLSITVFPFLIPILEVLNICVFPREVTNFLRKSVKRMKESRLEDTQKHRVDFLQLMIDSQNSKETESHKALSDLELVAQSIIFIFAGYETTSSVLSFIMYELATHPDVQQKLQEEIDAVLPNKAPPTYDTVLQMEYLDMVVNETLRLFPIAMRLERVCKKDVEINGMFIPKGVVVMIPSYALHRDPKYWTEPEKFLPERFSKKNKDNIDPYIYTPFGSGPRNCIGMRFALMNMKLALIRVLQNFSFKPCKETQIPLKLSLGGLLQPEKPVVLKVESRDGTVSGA
CYP2C19, sequence (P33261 whole entry): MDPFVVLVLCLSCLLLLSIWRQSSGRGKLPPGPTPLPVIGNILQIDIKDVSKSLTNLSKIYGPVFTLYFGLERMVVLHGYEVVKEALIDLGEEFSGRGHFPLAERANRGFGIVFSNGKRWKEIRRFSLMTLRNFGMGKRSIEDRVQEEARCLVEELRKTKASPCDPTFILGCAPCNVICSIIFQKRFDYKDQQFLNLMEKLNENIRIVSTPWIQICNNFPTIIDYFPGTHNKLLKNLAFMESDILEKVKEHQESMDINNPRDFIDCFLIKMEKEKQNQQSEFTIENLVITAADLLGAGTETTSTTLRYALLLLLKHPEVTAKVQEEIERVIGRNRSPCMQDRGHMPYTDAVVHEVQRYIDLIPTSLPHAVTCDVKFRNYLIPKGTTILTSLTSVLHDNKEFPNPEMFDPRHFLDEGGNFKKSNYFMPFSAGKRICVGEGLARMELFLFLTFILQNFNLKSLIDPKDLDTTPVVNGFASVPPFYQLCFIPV
CYP1A2, sequence (P05177 whole entry): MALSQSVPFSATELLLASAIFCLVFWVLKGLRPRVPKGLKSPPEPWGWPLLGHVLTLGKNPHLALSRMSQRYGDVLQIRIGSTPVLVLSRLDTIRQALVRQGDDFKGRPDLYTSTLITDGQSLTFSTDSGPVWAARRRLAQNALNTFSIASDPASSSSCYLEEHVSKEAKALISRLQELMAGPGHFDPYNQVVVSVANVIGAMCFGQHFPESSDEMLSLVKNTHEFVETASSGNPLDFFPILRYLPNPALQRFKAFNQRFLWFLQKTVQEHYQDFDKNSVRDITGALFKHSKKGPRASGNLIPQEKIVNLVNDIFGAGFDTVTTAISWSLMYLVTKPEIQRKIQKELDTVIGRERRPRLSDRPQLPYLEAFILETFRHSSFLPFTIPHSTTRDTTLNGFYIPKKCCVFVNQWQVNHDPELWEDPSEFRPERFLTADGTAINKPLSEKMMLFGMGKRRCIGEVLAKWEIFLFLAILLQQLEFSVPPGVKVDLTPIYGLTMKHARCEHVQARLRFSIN
GST-bound ERR alpha LBD, sequence (P11474 193-421): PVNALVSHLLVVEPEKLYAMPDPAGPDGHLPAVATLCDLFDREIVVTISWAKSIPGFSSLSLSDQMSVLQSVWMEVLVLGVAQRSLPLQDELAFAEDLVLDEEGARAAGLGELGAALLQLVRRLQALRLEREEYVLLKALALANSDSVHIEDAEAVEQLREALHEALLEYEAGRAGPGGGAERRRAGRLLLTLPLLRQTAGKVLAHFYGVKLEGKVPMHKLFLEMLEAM
GST-bound ER alpha ligand-binding domain (LBD), sequence (P03372 whole entry, looked up, the tested form may be a part): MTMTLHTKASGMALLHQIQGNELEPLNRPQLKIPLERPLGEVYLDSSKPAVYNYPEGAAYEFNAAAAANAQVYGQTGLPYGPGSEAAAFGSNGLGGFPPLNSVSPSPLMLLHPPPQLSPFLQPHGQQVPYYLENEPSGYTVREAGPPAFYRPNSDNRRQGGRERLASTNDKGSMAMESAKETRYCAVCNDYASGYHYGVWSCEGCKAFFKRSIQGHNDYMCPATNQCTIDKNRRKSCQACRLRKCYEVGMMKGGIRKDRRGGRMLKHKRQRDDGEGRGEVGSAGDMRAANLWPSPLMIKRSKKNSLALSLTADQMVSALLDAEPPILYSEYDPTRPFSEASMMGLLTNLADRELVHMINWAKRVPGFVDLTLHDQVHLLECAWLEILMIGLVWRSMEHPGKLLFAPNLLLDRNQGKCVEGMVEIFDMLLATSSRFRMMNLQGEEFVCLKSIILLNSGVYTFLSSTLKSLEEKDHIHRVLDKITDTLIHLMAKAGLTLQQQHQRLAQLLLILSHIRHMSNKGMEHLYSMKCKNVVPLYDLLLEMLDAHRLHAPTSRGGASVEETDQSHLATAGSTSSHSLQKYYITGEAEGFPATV

Structure (SMILES)	MS(Microsomal Stability) (%) human [1]	MS(Microsomal Stability) (%) mouse [2]	MS(Microsomal Stability) (%) rat [3]	MS(Microsomal Stability) (%) dog [4]	CYP inhibition (% of control) 2C19 (CYP2C19)	CYP inhibition (% of control) 3A4 (CYP3A4)	Permeability Pampa (in vitro)	CYP inhibition (% of control) 1A2 (CYP1A2)	CYP inhibition (% of control) 2D6 (CYP2D6)	CYP inhibition (% of control) 2C9 (CYP2C9)	other results
CC(C)N1CCC(c2ccc(/C(=C(/CCCO)c3ccccc3)c3ccc(O)cc3)cc2)C1 (racemic) [Compound 22s]	34.9%	21.7%	75.6%	35.4%							AUCall (in vivo; IV, 1 mg/kg): 0.44 μMh; Vss (in vivo; IV, 1 mg/kg): 13.2 L/kg; t1/2 (in vivo; IV, 1 mg/kg): 2.2 h; AUCINF (in vivo; PO, 10 mg/kg): 0.11 μMh; AUCall (in vivo; PO, 10 mg/kg): 0.09 μMh; BA (in vivo; PO, 10 mg/kg): 18.5%; Tmax (in vivo; PO, 10 mg/kg): 1.3 h; Cmax (in vivo; PO, 10 mg/kg): 20 nM
CC(C)N1CCC(c2ccc(/C(=C(/CCCO)c3ccccc3)c3cccc(O)c3)cc2)C1 (racemic) [Compound 22u]	40.0%	17.2%	44.3%	10.0%							
CN1CCC[C@H]1CCOc1ccc(/C(=C(/CCCO)c2ccccc2)c2ccc(O)cc2)cc1 [Compound 6j]											IC50 [5]: 34 nM; Functional Assay at 10 μM (% of control), Cpds (ERRγ; 10 μM, 24 hours, AD293): 2.44 % of control; Functional Assay, Cpds/Ref 5182 (ERRγ; [7]): 0.77
CN1CCC[C@@H]1CCOc1ccc(/C(=C(/CCCO)c2ccccc2)c2ccc(O)cc2)cc1 [Compound 6k]											IC50 [5]: 26 nM; Functional Assay at 10 μM (% of control), Cpds (ERRγ; 10 μM, 24 hours, AD293): 2.5 % of control; Functional Assay, Cpds/Ref 5182 (ERRγ; [7]): 0.79; Papp at 5 h (in vitro): 0.12 ×10⁻⁶ cm/s
Cl.Cl.OCCC/C(=C(\c1ccc(O)cc1)c1ccc(OCCN2CCNCC2)cc1)c1ccccc1 [Compound 7a, (Z)-4-(5-hydroxy-2-phenyl-1-(4-(2-(piperazin-1-yl)ethoxy)phenyl)pent-1-en-1-yl)phenol 2hydrochloride salt]	49.0%	32.1%	59.5%	64.7%							Functional Assay at 10 μM (% of control), Cpds (ERRγ): 2.71 % of control; Functional Assay, Cpds/Ref 5182 (ERRγ): 0.86
CN1CCC[C@H]1COc1ccc(/C(=C(/CCCO)c2ccccc2)c2ccc(Br)cc2)cc1 [Compound 13b]	61.2%		66.2%								IC50 [5]: 64 nM; Functional Assay at 10 μM (% of control), Cpds (ERRγ): 1.5 % of control; Functional Assay, Cpds/Ref 5182 (ERRγ): 0.48; Papp at 5 h (in vitro): 0.93 ×10⁻⁶ cm/s
CC(C)N1CCN(c2ccc(/C(=C(/CCCO)c3ccccc3)c3ccc(Br)cc3)cc2)CC1 [Compound 18e]					84.6 % of control	84 % of control	1.11 10^−6 cm/s	>100 % of control	>100 % of control	91.3 % of control	Functional Assay at 10 μM (% of control), Cpds (ERRγ; 10 μM, 24 hours, AD293): 2.6 % of control; Functional Assay, Cpds/Ref 5182 (ERRγ; [7]): 0.89; IC50 (GST-bound ERR alpha LBD): > 10000 nM; IC50 [6]: > 10000 nM; AUCINF (in vivo; IV, 1 mg/kg): 0.06 μMh; AUCall (in vivo; IV, 1 mg/kg): 0.06 μMh; Vss (in vivo; IV, 1 mg/kg): 39.1 L/kg; t1/2 (in vivo; IV, 1 mg/kg): 0.8 h; AUCINF (in vivo; PO, 10 mg/kg): 0.09 μMh; AUCall (in vivo; PO, 10 mg/kg): 0.07 μMh; BA (in vivo; PO, 10 mg/kg): 11.5%; Tmax (in vivo; PO, 10 mg/kg): 2.8 h; Cmax (in vivo; PO, 10 mg/kg): 10 nM
CC(C)N1CCN(c2ccc(/C(=C(/CCCO)c3ccccc3)c3cccc(O)c3)cc2)CC1 [Compound 18k]	65.4%	26.9%	54.9%	61.2%			1.29 10^−6 cm/s				Functional Assay at 10 μM (% of control), Cpds (ERRγ; 10 μM, 24 hours, AD293): 1.08 % of control; Functional Assay, Cpds/Ref 5182 (ERRγ; [7]): 1.14
Cc1ccc(/C(=C(\CCCO)c2ccccc2)c2ccc(C3CCNCC3)cc2)cc1 [Compound 20k]	93.6%	81.3%	89.0%	84.9%	78.9 % of control	83.6 % of control		79.3 % of control	96.2 % of control	87.6 % of control	
CCN1CCC(c2ccc(C(=C(CCCO)c3ccccc3)c3cccc(O)c3)cc2)CC1 [Compound 22ae]	48.4%	21.5%	32.2%	33.7%	>100 % of control	81.5 % of control		59.4 % of control	68.4 % of control	>100 % of control	
Cc1ccc(/C(=C(\CCCO)c2ccccc2)c2ccc(C3CCN(C)CC3)cc2)cc1 [Compound 22f]	97.0%	66.3%	80.0%	78.1%			3.96 10^−6 cm/s				
CC(C)N1CCC(c2ccc(/C(=C(/CCCO)c3ccccc3)c3cccc(O)c3)cc2)CC1 [Compound 22h]	46.9%	16.2%	43.8%	22.4%	>100 % of control	72.2 % of control		>100 % of control	69.1 % of control	97.9 % of control	
OCCC/C(=C(\c1ccc(O)cc1)c1ccc(C2CCN(C3CC3)CC2)cc1)c1ccccc1 [Compound 22i]	36.0%	83.6%	92.6%	91.5%			0.35 10^−6 cm/s				AUCINF (in vivo; IV, 1 mg/kg): 0.54 μMh; AUCall (in vivo; IV, 1 mg/kg): 0.49 μMh; Vss (in vivo; IV, 1 mg/kg): 11.7 L/kg; t1/2 (in vivo; IV, 1 mg/kg): 3.0 h; AUCINF (in vivo; PO, 10 mg/kg): 4.52 μMh; AUCall (in vivo; PO, 10 mg/kg): 2.24 μMh; BA (in vivo; PO, 10 mg/kg): 45.3%; Tmax (in vivo; PO, 10 mg/kg): 2.2 h; Cmax (in vivo; PO, 10 mg/kg): 380 nM
CC(C)N1CCC(c2ccc(/C(=C(/CCCO)c3ccccc3)c3ccc(O)cc3)cc2)CC1 [Compound 22k]	59.7%	23.4%	69.0%	59.6%	>100 % of control	74.7 % of control		>100 % of control	73.7 % of control	97 % of control	Functional Assay at 10 μM (% of control), Cpds (ERRγ; 10 μM, 24 hours, AD293): 0.77 % of control; Functional Assay, Cpds/Ref 5182 (ERRγ; [7]): 0.83; IC50 (GST-bound ERR alpha LBD): > 10000 nM; IC50 [6]: 1380 nM
OCCC/C(=C(/c1ccc(C2=CCN(C3CC3)CC2)cc1)c1cccc(O)c1)c1ccccc1 [Compound 22l]	71.8%	25.8%	53.4%	67.9%	97 % of control	80.7 % of control		96.2 % of control	99 % of control	88.3 % of control	
CC(C)N1CCN(c2ccc(/C(=C(/CCCO)c3ccccc3)c3ccc(N)cc3)cc2)CC1 [Compound 26b]	49.1%	14.3%	31.4%	40.6%	98.7 % of control	60.9 % of control		99.2 % of control	81.9 % of control	92.5 % of control	
CC(=O)Nc1ccc(/C(=C(\CCCO)c2ccccc2)c2ccc(C3CCN(C4CC4)CC3)cc2)cc1 [Compound 27c]	83.5%	42.1%	79.4%	81.2%			0.68 10^−6 cm/s				
CC(=O)Nc1ccc(/C(=C(\CCCOC(C)=O)c2ccccc2)c2ccc(C3CCN(C4CC4)CC3)cc2)cc1 [Compound 27d]	63.7%	17.6%	67.6%	43.8%			0.34 10^−6 cm/s				
